Test system: Aspergillus niger
Assay: Microbial challenge testing in BPW
Format: cell-based
Settings: for Grade code, A. niger, 3 Day / Grade code, A. niger, 13 Day / Grade code, A. niger, 30 Day: BPW, w/v % in label, average of replicates
Description: The microorganisms used in challenge tests are given in Table 3, designated as either ATCC (American Type Culture Collection) or wild type. These wild type organisms were problematic organisms previously isolated from chemical products. In the description for each organism, the bacteria are indicated as either GN (Gram negative) or GP (Gram positive).
All of the microorganisms were grown in Tryptose Soy Broth (TSB), DIFCO™ available from Becton, Dickinson and Company, containing 1% dextrose. Aspergillus niger and Candida albicans were incubated at 22° C.±2° C. for at least 96 hours. All bacteria were incubated at 35° C.±2° C. in a humidified incubator for at least 96 hours.
Aspergillus niger and Candida albicans were also grown on Sabouraud dextrose agar (SDA) at 22° C.±2° C. for 7 to 14 days or until full sporulation was achieved.
The following procedure was followed to determine the amount of each challenge material (inoculum broth) required to produce a 10^8 cfu/mL challenge, which is equivalent to a final test-sample microbial concentration of 10^5 to 10^6 cfu (colony-forming units)/mL.
Using a sterile serological pipette, 1 mL of the growth from each TSB culture was transferred into tubes containing 9 mL phosphate buffer (pH 7.2) and mixed thoroughly. This process was repeated to make serial 1:10 dilutions. Then 0.1 mL of each sample and dilution was inoculated onto agar plates to produce the equivalent of a further 1:10 dilution. C. albicans and A. niger were inoculated onto SDA and bacteria were inoculated onto Plate Count Agar (PCA), DIFCO™ available from Becton, Dickinson and Company. The 0.1 mL aliquots were evenly distributed on the plates using the spread-plate technique. The spread-plate technique is performed by spreading the aliquot over the entire plate surface using a sterile spreading rod while rotating the plate with a rotary auto-plater. After the inoculum was absorbed completely, each plate was inverted and incubated (fungi at 22° C.±2° C. and bacteria at 35° C.±2° C.).
After incubation for at least 48 hours, colonies that had developed on the agar plates were counted and recorded with the corresponding dilution. If counting had to be delayed temporarily, plates were refrigerated, preferably no more than 24 hours, until they could be counted. The number of cfu/mL was determined by multiplying the count by the dilution factor for that particular plate.
Turbidity in Nepholemetric Turbidity Units (NTU) was measured for each serial dilution using the HF-Micro 100 Model Turbidimeter. For each microorganism, the plate counts were compared to the turbidity readings.
Aspergillus niger cultures were harvested and spores dislodged from the SDA on which they were grown by rubbing the growth gently with a sterile inoculating loop. The spores were then mixed into the broth culture that had been incubated with a sterile magnetic stir bar to reduce pellicle formation. The spore-culture mixture was filtered repeatedly through sterile, non-absorbent cotton and harvested repeatedly, adjusting vegetative cells and spores to a level of 1.0×10^8. A hemocytometer was used to verify the final challenge concentration.
Control substrates (“broth alone”) were prepared for each microorganism separately in triplicate by adding 13.5 mL of BPW (pH 7.0) containing 1% (w/v) dextrose to each 20-mL glass tube; then adding 1.5 mL challenge material to produce a final concentration at time zero of 10^5 to 10^6 cfu/mL and a total volume of 15 mL.
Test sample substrates were prepared containing each test material (1,4-CHDM, etc) or combination of test materials at the concentrations shown in Tables 5 and 6.

Compound	Grade code, A. niger, 3 Day (3 days incubation)	Grade code A. niger (0.5%, 3 days incubation)	Grade code A. niger (0.5%, 13 days incubation)	Grade code A. niger (0.5%, 30 days incubation)	Grade code A. niger (1.25%, 3 days incubation)	Grade code A. niger (1.25%, 13 days incubation)	Grade code A. niger (1.25%, 30 days incubation)	Grade code A. niger (2.5%, 3 days incubation)	Grade code A. niger (2.5%, 13 days incubation)	Grade code A. niger (2.5%, 30 days incubation)	further results
O=C([O-])CN(CCN(CC(=O)O)CC(=O)O)CC(=O)[O-].[Na+].[Na+] [EDTA, ethylenediaminetetraacetic acid disodium salt]	4	–	–	–	–	–	–	–	–	–	Grade code, A. niger, 13 Day (13 days incubation): 4; Grade code, A. niger, 30 Day (30 days incubation): 4
CC1(C)C(O)C(C)(C)C1O (centres unmarked) [TMCD, 2,2,4,4-tetramethyl-1,3-cyclobutanediol]	–	5	5	5	4	4	4	3 (Individual colonies not countable; >75% of plate covered with growth)	2 (Countable (11 to 100 colonies))	3 (Individual colonies not countable; >75% of plate covered with growth)	–
CCCCCCC(O)CO (centres unmarked) [CG, 1,2-octanediol]	4	–	–	–	–	–	–	–	–	–	Grade code, A. niger, 13 Day (13 days incubation, listed as 0.25% CG): 4; Grade code, A. niger, 13 Day (13 days incubation, listed as 0.5% CG): 2 (Countable (11 to 100 colonies)); Grade code, A. niger, 30 Day (30 days incubation, listed as 0.25% CG): 4; Grade code, A. niger, 30 Day (30 days incubation, listed as 0.5% CG): 1 (Countable (1 to 10 colonies))
OCC1CCC(CO)CC1 (centres unmarked) [1,4-CHDM, 1,4-cyclohexanedimethanol]	–	4	4	4	4	4	4	2 (Countable (11 to 100 colonies))	1 (Countable (1 to 10 colonies))	2.3	Grade code, A. niger, 3 Day (3 days incubation, listed as 0.5% AB): 4; Grade code, A. niger, 3 Day (3 days incubation, listed as 1.25% AB): 4; Grade code, A. niger, 3 Day (3 days incubation, listed as 2.5% AB): 2 (Countable (11 to 100 colonies)); Grade code, A. niger, 13 Day (13 days incubation, listed as 0.5% AB): 4; Grade code, A. niger, 13 Day (13 days incubation, listed as 1.25% AB): 4; Grade code, A. niger, 13 Day (13 days incubation, listed as 2.5% AB): 1 (Countable (1 to 10 colonies)); Grade code, A. niger, 30 Day (30 days incubation, listed as 0.5% AB): 4; Grade code, A. niger, 30 Day (30 days incubation, listed as 1.25% AB): 4; Grade code, A. niger, 30 Day (30 days incubation, listed as 2.5% AB): 2.3
